{"source": "patent US7897588B2", "about": "“Agents and methods for enhancing bone formation” (The Regents of the University of California, priority 2003, dated 2011)", "key": {"[1]": {"system": "M2-10B4 mouse marrow stromal cell line", "test": "Alkaline phosphatase (ALP) activity assay in M2 cells", "type": "cell-based", "details": "for inhibition of oxysterol-induced alkaline phosphatase activity: 22R+20S, SC-560 10 μM, ACA 25 μM, AACOCF3 20 μM, PD98059 20 μM", "description": "(§1) Cells: M2-10B4 mouse marrow stromal cell line obtained from American Type Culture Collection (ATCC, Rockville, Md., U.S.A.) was derived from bone marrow stromal cells of a (C57BL/6J×C3H/HeJ) F1 mouse, and support human and murine myelopoiesis in long-term cultures (as per ATCC) and have the ability to differentiate into osteoblastic and adipocytic cells. Unless specified, these cells were cultured in RPMI 1640 containing 10% heat-inactivated FBS, and supplemented with 1 mM sodium pyruvate, 100 U/ml penicillin, and 100 […] (all from Irvine Scientific).\nAlkaline phosphatase activity assay: Colorimetric alkaline phosphatase (ALP) activity assay on whole cell extracts was performed as previously described.\nTest 1: M2 cells at confluence were treated with control vehicle (C), or 10 μM oxysterols, in an osteogenic medium consisting of RPMI 1640 to which 10% fetal bovine serum (FBS), 50 μg/ml ascorbate and 3 mM beta-glycerophosphate (βGP) were added. After 3 days of incubation, alkaline phosphatase (ALP) activity was determined in cell homogenates by a colorimetric assay. […] FIG. 3A is a bar graph depicting the effect of various oxysterols on alkaline phosphatase activity in M2 cells.\nM2 cells at confluence were treated in osteogenic medium with control vehicle (C) or a combination of 22R and 20S oxysterols, at the indicated concentrations. ALP activity was measured after 3 days as described above. […] FIG. 3B is a bar graph depicting the effect of a combination of oxysterols at various doses on alkaline phosphatase activity in M2 cells.\nTest 2: M2 cells were grown in RPMI medium containing 10% fetal bovine serum (FBS). At confluence, the cells were treated in RPMI containing 5% FBS plus ascorbate at 50 μg/ml and β-glycerophosphate at 3 mM to induce osteoblastic differentiation. Adipogenic differentiation was induced by treating the cells in growth medium plus 10 ˜M troglitazone. A vehicle (C) or oxysterol treatment was applied to cells in a variety of doses (in μM): 20S-Hydroxycholesterol, 25-Hydroxycholesterol, 22R-Hydroxycholesterol; 22S-Hydroxycholesterol; 7-ketocholesterol. Cells were always treated at 90% confluence. After 4 days, alkaline phosphatase activity was determined in whole cell lysates and normalized to protein. Alternatively, MSC cultures were prepared and treated with oxysterols as described above. Cells were treated at 90% confluence with the combination of 22R-Hydroxycholesterol and 20S-Hydroxycholesterol, each at 5 uM, for 4 to 96 hours. The oxysterols where removed and fresh media without oxysterols was added for a total duration of 96 hours. Alkaline phosphatase activity was measured in whole cell extracts and normalized to protein.\nM2 cells were treated at 90% confluence with vehicle (C), or oxysterols 20S-Hydroxycholesterol or 22S-Hydroxycholesterol at (0.5 μM) or (1 μM), in the absence or presence of cytochrome P450 inhibitor (SKF525A 10 μM (+)). MSC cultures were also treated at 90% confluence with vehicle (C), or 20S-Hydroxycholesterol (2 μM), in the absence or presence of cytochrome P450 […] (Benzylimidazole 50 μM) or SKF525A (10 μM). After 4 days, alkaline phosphatase activity was measured in whole cell extracts and normalized to protein.\nNext, a combination of 22R and 20S oxysterols (RS, 2.5 μM each) were added in the presence or absence of SC as indicated. After 3 days, ALP activity was measured as described earlier. […] (B) M2 cells were treated as described in (A) and after 10 days matrix mineralization in cultures was quantified by a ^45Ca incorporation assay as described earlier."}, "M2 cells [2]": {"system": "M2 cells", "test": "Adipogenesis of troglitazone-treated M2 cells (oil Red O staining, adipocyte count)", "type": "cell-based, mouse", "details": "M2 cells treated with Tro 10 μM, oxysterols 10 μM, 10 days", "description": "(§2) Von Kossa and oil red O staining—Matrix mineralization in cell monolayers was detected by silver nitrate staining as previously described. Oil red O staining for detection of adipocytes was performed as previously described.\nTest 1: M2 cells at 90% confluence were treated with vehicle (C), PPAR-γ activator, troglitazone 10 uM (Tro), alone or in combination with 10 μM oxysterols 20S-, 22R-, or 25S-hydroxycholesterol. After 8 days, adipocytes were identified by oil Red 0 staining and quantified by counting under a phase contrast microscope. FIG. 6A is a bar graph depicting the effect of oxysterols on reducing adipogenesis of MSC.\nTest 2: (A) M2 cells at confluence were treated in RPMI containing 10% FBS with control vehicle or 10 μM troglitazone (Tro) in the absence or presence of 10 μM 20S or 22S oxysterols. After 10 days, adipocytes were visualized by oil Red O staining and quantified by light microscopy, shown in (B). Data from a representative of four experiments are shown, reported as the mean SD of quadruplicate determinations (p<0.001 for Tro vs. Tro+20S and Tro+22S). (C) M2 cells were treated at confluence with 10 μM Tro, alone or in combination with 10 μM 20S oxysterol. After 10 days, total RNA was isolated and analyzed for lipoprotein lipase (LPL), adipocyte P2 gene (aP2) or 18S rRNA expression by Northern blotting as described (Ref). Data from densitometric analysis of the Northern blot is shown in (D) as the average of duplicate samples, normalized to 18S rRNA."}, "[3]": {"system": "M2-10B4 mouse marrow stromal cell line", "test": "Matrix mineralization in M2 cells (von Kossa staining, 45Ca incorporation assay)", "type": "cell-based", "details": "22R+20S, 10 days, SC-560 10 μM, ACA 25 μM, AACOCF3 20 μM, PD98059 20 μM", "description": "as §1, §2\n^45Ca incorporation assay—Matrix mineralization in cell monolayers was quantified using the ^45Ca incorporation assay as previously described.\nM2 cells at confluence were treated in osteogenic medium with control vehicle or 5 μM oxysterols, alone or in combination as indicated. After 14 days, mineralization was identified by a von Kossa staining, which appears black. FIG. 3C is a depiction of von Kossa staining of M2 cells exposed to various conditions.\nM2 cells were treated with control vehicle (C) or a combination of 22R and 20S oxysterols at increasing concentrations. After 14 days, matrix mineralization in cultures was quantified using a ^45Ca incorporation assay. […] FIG. 3D is a bar graph depicting the effect of a combination of oxysterols at various doses on calcium incorporation in M2 cells.\n(§3) Next, a combination of 22R and 20S oxysterols (RS, 2.5 μM each) were added in the presence or absence of SC as indicated. After 3 days, ALP activity was measured as described earlier. […] (B) M2 cells were treated as described in (A) and after 10 days matrix mineralization in cultures was quantified by a ^45Ca incorporation assay as described earlier. Results from a representative of three experiments are shown, reported as the mean±SD of quadruplicate determinations, normalized to protein concentration. (C) M2 cells were pretreated with 20 μM SC for 4 hours, followed by the addition of RS in the presence or absence of SC as described above. After 8 days, total RNA was isolated and analyzed for osteocalcin (Osc) and 18S rRNA expression by Northern blotting as previously described. Data from densitometric analysis of the Northern blot is shown in (D) as the average of duplicate samples, normalized to 18S rRNA. (E) M2 cells at confluence were pretreated for 2 hours with control vehicle (C), or PLA2 inhibitors ACA (25 μM) and AACOCF3 (AAC, 20 μM), in osteogenic medium. Next, a combination of 22R and 20S oxysterols (RS, 2.5 μM) was added in the presence or absence of the inhibitors as indicated. After 3 days, ALP activity was measured as previously described. Data from a representative of three experiments are shown, reported as the mean±SD of quadruplicate determinations, normalized to protein concentration (p<0.01 for RS vs. RS+ACA and RS+AAC). (F) M2 cells were treated as described in (E). After 10 days, matrix minerliazation in cultures was quantified using a ^45Ca incorporation assay as previously described. Results from a representative of three experiments are shown, reported as the mean of quadruplicate determinations±SD, normalized to protein concentration (p<0.01 for RS vs. RS+ACA and RS+AAC).\n(A) M2 cells at confluence were pretreated for four hours with RPMI containing 1% FBS, followed by treatment with control vehicle or 5 μM 20S oxysterol for 1, 4, or 8 hours. Next total cell extracts were prepared and analyzed for levels of native or phosphorylated ERK (pERK) using specific antibodies as previously described."}, "marrow stromal cells": {"system": "marrow stromal cells", "test": "Osteogenic activity of marrow stromal cells (alkaline phosphatase, mineral formation), overall", "type": "cell-based, mouse", "details": "M2 cells; SC-560 at 1-20 μM; NS-398 at 20 μM", "description": "as §3, with “Data from a representative of three experiments are shown, reported as the mean±SD of quadruplicate determinations, normalized to protein concentration (p<0.01 for RS vs. RS+ACA and RS+AAC). (F) M2 cells were treated as described in (E).” left out, “Results from a representative of three experiments are shown, reported as the mean of quadruplicate determinations±SD, normalized to protein concentration (p<0.01 for RS vs. RS+ACA and RS+AAC).” left out"}, "M2 cells [4]": {"system": "M2 cells", "test": "Toxicity of COX inhibitors in M2 cell cultures", "type": "cell-based, mouse"}}, "data": [{"smiles": "CC(C)CCC[C@@H](C)[C@H]1CC[C@H]2[C@@H]3C(=O)C=C4C[C@@H](O)CC[C@]4(C)[C@H]3CC[C@]12C", "note": "[7K, 7-ketocholesterol, reference compound]", "values": [{"measurement": "induction of alkaline phosphatase activity", "setting": "[1]; osteogenic medium, 10 μM oxysterols, 3 days", "value": "did not induce"}, {"measurement": "inhibition of adipogenesis", "setting": "M2 cells [2]", "value": "unable to inhibit"}]}, {"smiles": "CCCCC/C=C\\C/C=C\\C/C=C\\C/C=C\\CCCC(=O)C(F)(F)F", "note": "[AACOCF3]", "values": [{"measurement": "inhibition of oxysterol-induced alkaline phosphatase activity", "setting": "[1]", "value": "inhibited"}, {"measurement": "inhibition of oxysterol-induced mineralization", "setting": "[3]", "value": "inhibited"}]}, {"smiles": "CCCCCc1ccc(/C=C/C(=O)Nc2ccccc2C(=O)O)cc1", "note": "[ACA]", "values": [{"measurement": "inhibition of oxysterol-induced alkaline phosphatase activity", "setting": "[1]", "value": "inhibited"}, {"measurement": "inhibition of oxysterol-induced mineralization", "setting": "[3]", "value": "inhibited"}]}, {"smiles": "CS(=O)(=O)Nc1ccc([N+](=O)[O-])cc1OC1CCCCC1", "note": "[NS-398]", "values": [{"measurement": "inhibition of the osteogenic effects of oxysterol combinations", "setting": "marrow stromal cells", "value": "negligible inhibitory effects"}, {"measurement": "highest non-toxic dose", "setting": "M2 cells [4]", "value": 20, "unit": "µM"}]}, {"smiles": "COc1cccc(-c2cc(=O)c3ccccc3o2)c1N", "note": "[PD98059]", "values": [{"measurement": "inhibition of oxysterol-induced mineralization", "setting": "[3]", "value": "inhibited"}]}, {"smiles": "CCCCC[C@H](O)/C=C/[C@H]1[C@H](O)CC(=O)[C@@H]1C/C=C\\CCCC(=O)O", "note": "[PGE2, prostaglandin E2]", "values": [{"measurement": "reversal of the effect of the COX-1 inhibitor on oxysterol-induced alkaline phosphatase activity", "setting": "[1]; 1 μM PGE2 (data not shown)", "value": "reversed"}]}, {"smiles": "CCCC(C(=O)OCCN(CC)CC)(c1ccccc1)c1ccccc1.Cl", "note": "[SKF525A]", "values": [{"measurement": "effect on the osteogenic effects of the oxysterols (alkaline phosphatase activity)", "setting": "[1]; 20S or 22S 0.5 or 1 μM, SKF525A 10 μM, 4 days", "value": "potentiated"}]}, {"smiles": "CCCCC/C=C\\C/C=C\\C/C=C\\C/C=C\\CCCC(=O)O", "note": "[arachidonic acid]", "values": [{"measurement": "reversal of the effect of the PLA2 inhibitors on oxysterol-induced alkaline phosphatase activity", "setting": "[1]; 25 μM arachidonic acid (data not shown)", "value": "reversed"}]}]}
